Experimental data taken from patent US8691864B2, “Agents useful for reducing amyloid precursor protein and treating dementia and methods of use thereof” (priority 2000, dated 2014).

What was measured:
SH-SY-5Y Cells = test: MTS toxicity assay in SHSY5Y cells; format: cell-based, human
Experimental: (§1) An enzyme-linked immunosorbent assay was developed to detect secreted APP in SHSY5Y cells, a human neuroblastoma cell line. The purpose of the screen was to discover small molecules that inhibit APP protein synthesis in SHSY5Y cells. SHSY5Y cells were plated at 1×10^5 cells/well in […] of DMEM containing 0.5% heat inactivated FBS in 96 well tissue culture treated plates (Falcon no. 35 3072). 144 MES compounds were tested at final concentrations of […] in 0.1% DMSO. Compounds were added and the plates incubated for 16 hours at 37° C./5% CO2. Maxisorp plates (Nunc no. 437958) were coated overnight with […] capture antibody (Biosource 44-100) diluted in Ca^++ and Mg^++ free PBS. Biosource 44-100 is a mouse mAb that recognizes aa 1-100 of human APP. Plates were blocked for 30 minutes with 1 mg/mL BSA in Ca^++ and Mg^++ free PBS. Plates were washed 3× with wash buffer (Ca^++ and Mg^++ free PBS+0.01% Tween20). […] of supernatants and non-cultured medium controls were transferred from culture plates to ELISA plates. Culture plates were reserved for toxicity analysis. Supernatants were incubated for 4 hours at RT on a plate shaker. After supernatant incubation, plates were washed 3×. Primary antibody (Signet Clone 6E-10 biotin) was added at 0.3125 mg/mL and incubated overnight at 4° C. The recognition site of 6E-10 is aa 1-17 of Ab. For detection, a 1:3000 dilution of horseradish peroxidase conjugated streptavidin (Endogen no. N-100) was incubated for 30 minutes. Plates were washed 3×. Enzyme activity was assessed by incubation with […] TMB substrate solution (Moss no. TMB-US) for 20 minutes. The reaction was stopped by the addition of […] 0.18M sulfuric acid. Optical density was read at 450 nm on Wallac Victor2 plate reader. During the first incubation, toxicity was determined using MTS assay, Cell Titer96 AQ reagent (Promega no. G5430). The background values from the non-cultured medium control were subtracted from the sample values and secreted APP levels and toxicity were expressed as % vehicle control. Of the 144 MES compounds screened, 12 inhibited secreted APP as determined by ELISA. The results are depicted in FIGS. 13A-M.
(§2) Using the experimental procedure outlined above, APP secretion and toxicity studies were performed on several other non-carbamate compounds, and the results are shown in Tables 3 and 4. The compound structures are provided in Table 2 in the application, which are identified by their MES number.

secreted APP = test: ELISA for secreted APP in SHSY5Y cells; format: cell-based, human; details: 16 hours
Experimental: as §1, §2

Structure (SMILES)	APP Toxicity SH-SY-5Y Cells (MTS assay) (SH-SY-5Y Cells; Dose 2 uM)	APP Toxicity SH-SY-5Y Cells (MTS assay) (SH-SY-5Y Cells; Dose 6 uM)	APP Toxicity SH-SY-5Y Cells (MTS assay) (SH-SY-5Y Cells; Dose 20 uM)	APP Secretion by SH-SY-5Y Cells (secreted APP; Dose 2 uM)	APP Secretion by SH-SY-5Y Cells (secreted APP; Dose 6 uM)	APP Secretion by SH-SY-5Y Cells (secreted APP; Dose 20 uM)	APP Toxicity SH-SY-5Y Cells (MTS assay) (SH-SY-5Y Cells; Dose 0.08 uM)	APP Toxicity SH-SY-5Y Cells (MTS assay) (SH-SY-5Y Cells; Dose 0.25 uM)	APP Toxicity SH-SY-5Y Cells (MTS assay) (SH-SY-5Y Cells; Dose 0.74 uM)	APP Secretion by SH-SY-5Y Cells (secreted APP; Dose 0.08 uM)	APP Secretion by SH-SY-5Y Cells (secreted APP; Dose 0.25 uM)	APP Secretion by SH-SY-5Y Cells (secreted APP; Dose 0.74 uM)	APP Toxicity SH-SY-5Y Cells (MTS assay) (SH-SY-5Y Cells; Dose 2 uM, listed as 9276)	APP Toxicity SH-SY-5Y Cells (MTS assay) (SH-SY-5Y Cells; Dose 6 uM, listed as 9276)	APP Toxicity SH-SY-5Y Cells (MTS assay) (SH-SY-5Y Cells; Dose 20 uM, listed as 9276)
COc1ccc2c(c1)[C@]1(C)CCN(C)C1N2Cc1ccccc1 (stereo partly drawn) [MES 9242]	94.2 % vehicle control	89.8 % vehicle control	80.95 % vehicle control	116.75 % vehicle control	116.3 % vehicle control	116.1 % vehicle control	–	–	–	–	–	–	–	–	–
COc1ccc2c(c1)[C@]1(C)CCNC1N2 (stereo partly drawn) [MES 9243]	99.1 % vehicle control	98.4 % vehicle control	99 % vehicle control	88.95 % vehicle control	95.25 % vehicle control	100.55 % vehicle control	–	–	–	–	–	–	–	–	–
C=CCO[C@H](c1ccnc2ccccc12)C1CC2CC[N+]1(Cc1c3ccccc3cc3ccccc13)CC2C=C.[Br-] (stereo partly drawn) [MES 9257]	100.5 % vehicle control	98.77 % vehicle control	100 % vehicle control	111.2 % vehicle control	98.9 % vehicle control	99.03 % vehicle control	–	–	–	–	–	–	–	–	–
CN(C)Cc1cc2c(cc1O)[C@]1(C)CCN(C)C1N2C (stereo partly drawn) [MES 9266]	96.55 % vehicle control	97.75 % vehicle control	94.15 % vehicle control	94.4 % vehicle control	95.2 % vehicle control	94.85 % vehicle control	–	–	–	–	–	–	–	–	–
Cc1cc2c(cc1O)[C@]1(C)CCN(C)C1N2C (stereo partly drawn) [MES 9267]	97.98 % vehicle control	96.72 % vehicle control	15.52 % vehicle control	93.68 % vehicle control	68.64 % vehicle control	22.22 % vehicle control	101.5 % vehicle control	102 % vehicle control	101.9 % vehicle control	97.8 % vehicle control	97.43 % vehicle control	97.43 % vehicle control	–	–	–
C/N=C(\C)c1cccc(OC)c1 [MES 9270]	99.4 % vehicle control	101.1 % vehicle control	100.4 % vehicle control	95.8 % vehicle control	95.9 % vehicle control	98.15 % vehicle control	–	–	–	–	–	–	–	–	–
CNC(C)c1cccc(OC)c1 (stereo not drawn) [MES 9271, 3-Methoxy-(1′-N-methylamino)-ethyl-benzene]	99 % vehicle control	99.475 % vehicle control	94.1 % vehicle control	96.1 % vehicle control	89.9 % vehicle control	63.825 % vehicle control	103.55 % vehicle control	103.45 % vehicle control	103.1 % vehicle control	96.6 % vehicle control	87.95 % vehicle control	92.2 % vehicle control	–	–	–
COc1ccc2c(c1)[C@]1(C)CCN(Cc3ccccc3)C1N2C (stereo partly drawn) [MES 9276]	–	–	–	96.15 % vehicle control	116.95 % vehicle control	133.4 % vehicle control	–	–	–	–	–	–	92.85 % vehicle control	93.5 % vehicle control	90.65 % vehicle control
COc1ccc2c(c1)[C@]1(C)CCN(Cc3ccccc3)C1N2C=O (stereo partly drawn) [MES 9277]	98.25 % vehicle control	98.3 % vehicle control	91.1 % vehicle control	98.25 % vehicle control	109 % vehicle control	113.6 % vehicle control	–	–	–	–	–	–	–	–	–
COc1ccc2c(c1)[C@]1(C)CCN(Cc3ccccc3)C1N2 (stereo partly drawn) [MES 9278]	97.63 % vehicle control	98.4 % vehicle control	96.33 % vehicle control	118.4 % vehicle control	116.8 % vehicle control	120.6 % vehicle control	–	–	–	–	–	–	–	–	–
C[C@@]12CCN(Cc3ccccc3)C1Nc1ccc(O)cc12 (stereo partly drawn) [MES 9279]	68.63 % vehicle control	46.67 % vehicle control	38.63 % vehicle control	43.27 % vehicle control	42.37 % vehicle control	18.4 % vehicle control	102.9 % vehicle control	101.1 % vehicle control	100.1 % vehicle control	97.8 % vehicle control	98.4 % vehicle control	97 % vehicle control	–	–	–
